# Measurements: patent US11466032B2, “Cytotoxic agents” (FEMTOGENIX LIMITED, priority 2017, dated 2022)
# Assays:
# [1] = system: HexA and MS1 DNA fragments; test: DNA footprinting; assay type: binding; settings: X is any base, Y is G or C, W is A or T; overnight incubation
# Experimental: The sequence selectivity of 26 and 34 was investigated using a modification of the previously established DNA footprinting assay^25. Following an overnight incubation of the ligand-DNA complexes, the mixture was mixed with strand separation buffer containing 10 mM EDTA, 10 mM NaOH, 0.1% bromophenol blue, 80% formamide and incubated at 100° C. for 3 min. The mixture was then immediately cooled on ice and run on an 8% denaturing gel.
# Footprinting reactions were performed as previously described^[5] using the DNA fragments HexA and HexB, which together contain all 64 symmetrical hexanucleotide sequences^[6], and MS1 that contains all possible […] tetranucleotide sequences^[7]. The DNA fragments were obtained by cutting the parent plasmids with HindIII and SacI (for HexA and MS1) or EcoRI and PstI (for HexB), and were labelled at the 3′-end of the HindIII or EcoRI sites with [α-^32P]dATP using reverse transcriptase or exo-Klenow fragment. After gel purification, the radiolabelled DNA was dissolved in 10 mM Tris-HCl pH 7.5 containing 0.1 mM EDTA, at a concentration of about 10 c.p.s per μL as determined on a hand held Geiger counter. 1.5 μL of radiolabelled DNA was mixed with 1.5 μL ligand that had been freshly diluted in 10 mM Tris-HCl pH 7.5, containing 10 mM NaCl. […]
# SW48 = test: MTT cytotoxicity assay, 72 hour incubation; assay type: cell-based
# Experimental: (§1) The cytotoxicity of compounds 26, 34, 50,58 and 68 were evaluated in a variety of cell lines using the standard MTT assay for a 72 hour incubation period (Table 1).
# (§2) Tumor cell lines were maintained in RPMI1640 medium supplemented with 10% heat-inactivated fetal bovine serum, 2 mM L-glutamine and 1 mM sodium pyruvate. 1800 cells per well were seeded in a volume of 180 μl in a 96-well flat bottom polystyrene plate. The cells were allowed to adhere overnight at 37° C. in a CO2 incubator. Ligands were initially formulated in DMSO, and stocks stored at −80° C. They were then further formulated at lox concentration in RPMI1640 medium. 20 ul of diluted samples were added into each treatment well. On each plate, blank wells with no cells, and untreated wells containing cells, were included. Plates were then cultured at 37° C. in a CO2 incubator for 72 hrs. Cytotoxicity was evaluated using a tetrazolium salt-based assay, the MT assay. After 72 hours, the supernatant was removed from each well and 200 μl of a sterile filtered 500 μg/ml MT solution in water added to each well. The plates were then incubated at 37° C. in a CO2 incubator for 4 hrs. The supernatant was then removed and the formazan crystals formed solubilized by adding 150 μl of DMSO to each well. The plate was then read on a plate reader at 540 nm, and percentage cell survival calculated as follows: ((mean absorbance treated wells at concentration x—mean absorbance blank wells)÷(mean absorbance untreated wells at concentration x—mean absorbance blank wells))×100. Data were plotted as concentration in nM vs. % cell survival in Microsoft Excel, and IC50 values (concentration where cell survival is reduced by a half) were determined from the graph.
# ZR 75-1 = test: MTT cytotoxicity assay, 72 hour incubation; assay type: cell-based; settings: Homo sapiens, 3 runs
# Experimental: as §1, §2
# SK-BR-3 = test: MTT cytotoxicity assay, 72 hour incubation; assay type: cell-based; settings: Homo sapiens, 3 runs
# Experimental: as §1, §2
# SW 620 = test: MTT cytotoxicity assay, 72 hour incubation; assay type: cell-based
# Experimental: as §1, §2
# MCF-7 = test: MTT cytotoxicity assay, 72 hour incubation; assay type: cell-based; settings: Homo sapiens, MCF7, 3 runs
# Experimental: as §1, §2
# LIM 1215 = test: MTT cytotoxicity assay, 72 hour incubation; assay type: cell-based
# Experimental: as §1, §2
# [2] = system: linear 32P-end-labelled TyrT DNA; test: DNA interstrand cross-linking assay (denaturing polyacrylamide gel); assay type: biochemical; settings: overnight incubation at 37° C.
# Experimental: The ability of 26 and 34 to cross-link DNA was determined using an assay involving linear double-stranded HexA. TyrT and MS1 DNA fragments (FIG. 5).
# Following denaturation conditions (treatment with formamide and heating at 65° C. for 5 min) the DNA strands were completely separated (see control C2, FIG. 6). The presence of an interstrand cross-link holds the denatured strands in close proximity, and cross-linked adducts therefore run as double-stranded DNA on polyacrylamide gel. Talirine and 34 were tested at >10 different concentrations, and the assay was repeated twice. […] C1 and C2 represent controls where C1 is DNA without formic acid, and C2 is DNA without formic acid, but heated thereby forming single strands. Cross-links are clearly detectable at concentrations as low as 10 nM. Using the same assay, the PBD dimer Talirine was also shown to cross-link DNA down to a concentration of 10 nM (FIG. 7).
# The preparation of the DNA fragments (FIG. 5) has been previously described^[4]. Briefly, the sequence which had been cloned into the BamHI site of pUC18 was obtained by cutting with HindIII and EcoRI. Radiolabelled DNA fragments were prepared by filling in the 3′-end of the HindIII site with [α-^32P]dATP using Klenow DNA polymerase (exo-).
# The radiolabelled DNA fragment was separated from the remainder of the plasmid DNA on a 6% non-denaturing polyacrylamide gel. […]
Molecule,general code of the footprints (preferred binding sites) [1],"IC50 (SW48; Homo sapiens, SW48, 3 runs) [pM]",IC50 (ZR 75-1) [pM],IC50 (SK-BR-3) [pM],"IC50 (SW 620; Homo sapiens, SW-620, 3 runs) [pM]",IC50 (MCF-7) [pM],"IC50 (LIM 1215; LIM1215, 3 runs) [pM]",IC50 (SW48; 3 runs) [pM],IC50 (SW 620; 3 runs) [pM],IC50 (LIM 1215; 3 runs) [pM],lowest concentration at which DNA is cross-linked [2] [nM]
"COc1ccc(C2=CCN3C(=O)c4cc(OC)c(OCc5cccc(COc6cc7c(cc6OC)C(=O)N6CC=C(c8ccc(OC)cc8)C[C@H]6C=N7)n5)cc4N=C[C@@H]3C2)cc1 [Compound 26, (6aS,6a′S)-3,3′-((Pyridine-2,6-diylbis(methylene))bis(oxy))bis(2-methoxy-8-(4-methoxyphenyl)-7,10-dihydrobenzo[e]pyrido[1,2-α][1,4]diazepin-12(6aH)-one)]",XYWWYWYX,6,5,6,5,6,6,,,,
"COc1cc2c(cc1OCc1cccc(COc3cc4c(cc3OC)C(=O)N3CC=C(c5cncnc5)C[C@H]3C=N4)n1)N=C[C@@H]1CC(c3cncnc3)=CCN1C2=O [Compound 50, (6aS,6a′S)-3,3′-((Pyridine-2,6-diylbis(methylene))bis(oxy))bis(2-methoxy-8-(pyrimidin-5-yl)-7,10-dihydrobenzo[e]pyrido[1,2-α][1,4]diazepin-12(6aH)-one)]",,3.1,,,1350,,3.7,,,,
"COc1cc2c(cc1OCc1cccc(COc3cc4c(cc3OC)C(=O)N3CC=C(c5ccsc5)C[C@H]3C=N4)n1)N=C[C@@H]1CC(c3ccsc3)=CCN1C2=O [Compound 58, (6aS,6a′S)-3,3′-((Pyridine-2,6-diylbis(methylene))bis(oxy))bis(2-methoxy-8-(thiophen-3-yl)-7,10-dihydrobenzo[e]pyrido[1,2-α][1,4]diazepin-12(6aH)-one)]",,8.6,,,92,,23,,,,
"COc1cc2c(cc1OCc1cccc(COc3cc4c(cc3OC)C(=O)N3CC=C(c5cccs5)C[C@H]3C=N4)n1)N=C[C@@H]1CC(c3cccs3)=CCN1C2=O [Compound 68, (6aS,6a′S)-3,3′-((Pyridine-2,6-diylbis(methylene))bis(oxy))bis(2-methoxy-8-(thiophen-2-yl)-7,10-dihydrobenzo[e]pyrido[1,2-α][1,4]diazepin-12(6aH)-one)]",,12,,,30,,13,,,,
Talirine [reference compound],,,,,,,,3,17,434,10
